From patent US20240108739A1, “OLIGOMERIC COMPOUNDS BINDING SPECIFICALLY TO PROTEOGLYCANS” (PHI PHARMA SA, priority 2020, published 2024)
Values belong to the compound of their own block, whether it stands above or below them. Starred links: 1 amine or outer side, 2 acyl side, 3 side chain; linkers in the order of their positions; H or OH if unused. Positions of bridges follow the written chain, without caps; N, C: chain ends. Non-standard residues stand in square brackets, D forms with d. Residues, ends and D or L forms follow the SMILES beside them. Chains are numbered I, II in the order given. No end group written: not given here. ξ: configuration not given here. *: point of attachment. X1 = CC1(C)C(/C=C/C(=C/C=C2\N(CCCS(=O)(=O)O)c3ccc(S(=O)(=O)O)cc3C2(C)C)c2cccc(CCC(=O)NCCN3C(=O)CC(*)C3=O)c2)=Nc2c1cc(Cl)c[n+]2CCCS(=O)(=O)[O-]; X3 = N=c1ccc2c(-c3ccc(C(=O)NCCCCCN4C(=O)CC(*)C4=O)cc3C(=O)O)c3ccc(N)c(S(=O)(=O)O)c3oc-2c1S(=O)(=O)O; X2 = O=C(CCCCCN1C(=O)CC(*)C1=O)NNC(=O)CCCCC1SC[C@H]2NC(=O)N[C@@H]12; NH(CH2CH2O)5CH2CO = O=C(COCCOCCOCCOCCOCCN[*:1])[*:2]; ξIle = CC[C@H](C)C(N)C(=O)O; Orn = NCCC[C@H](N)C(=O)O; AEA = NCCOCC(=O)O

Experiments:
[1] = tested on: CHO-pgsA-745 cells (GAG-deficient mutant); assay: Flow cytometry binding of biotinylated compounds to CHO cells (Example 3); type: cell-based; conditions: 30 min at 4 °C, streptavidin-680RD fluorescence; FIG. 3B
Procedure: (§1) Cell lines in exponential growth phase were cultured in complete culture medium with 10% FBS and grown in 75 cm^2 cell culture flasks. On the day of the experiment, cells were harvested and transferred in V-bottom culture plates, washed with PBS 1× supplemented with BSA 3% and then incubated with (51-hS)2KC-Mal-Biotin, (51-hS)2KS-(51-hS)KC-Mal-Biotin, [(51-hS)2KS]2KK(Biotin) and VAR2-Biotin for 30 min at 4° C. in PBS 1× supplemented with BSA 3% (and eventually PEG600 2%) at various dilutions (serial dilutions).
(§2) After the incubation, cells were washed in PBS 1× supplemented with BSA 3%. For visualization, cells were incubated for 15 min at 4° C. with streptavidin coupled to 680RD fluorochrome. After the incubation, cells were washed in PBS 1× supplemented with 3% BSA and then incubated for at least 15 min at 4° C. with 4′,6-diamidino-2-phenylindole (DAPI) (Thermo Fisher Scientific) in order to exclude dead cells. Samples were directly applied to a flow cytometer. Data generated on the flow cytometer was analyzed using Flowjo™ 10.6.0.

[2] = tested on: CHO-K1 cells (wild type, GAG present); assay: as above; type: cell-based; conditions: 30 min at 4 °C, streptavidin-680RD fluorescence; FIG. 3A
Procedure: as §1, §2

[3] = background statement; cited from earlier work
HCT 116 tumor xenograft = assay: In vivo biodistribution by Optical Imaging in HCT 116 xenografted mice (Example 9); set-up: species or system athymic nude mice
Procedure: For this purpose, HCT 116 cells were subcutaneously inoculated into the shoulder of athymic nude mice, and then the fluorescently-labelled compound was administered intravenously.
Optical Imaging was used to evaluate fluorescent signals in mice 0.5, 1, 3, 8, 24, and 72 hours after the administration of [(51-hS)2KS]2KC-Mal-680RD at 3 different concentrations. Flow cytometry was also used to evaluate the tumor target expression in xenografted mice.
HCT-116 cells were grown in McCoy's 5a medium supplemented with 10% foetal bovine serum, 100 IU/mL penicillin and 100 μg/mL streptomycin. The trypan-blue exclusion test was used to assess cell viability before cells inoculation. An aliquot (10 μL) of cell suspension was mixed with an equal amount of 0.4% trypan blue solution in PBS. 10 μL of the final solution was introduced in a counting chamber (hemocytometer). Viable cells appear round and bright, while damaged cells appear deep blue because of the incorporation of the trypan dye. Cell viability was expressed as % of viable cells over total cells). Cell cultures with viability of less than 70% were discarded.
HCT 116 cells were collected and washed two times with PBS. One million of HCT 116 cells were suspended in 1:1 Matrigel™: McCoy's 5a (total volume 0.15 mL) and then injected subcutaneously into the shoulder of each female mouse of groups A, B, C.
Animals were randomly assigned to the following experimental groups, Table 12.
All animals were dosed once according to Table 12 when the tumors reached approximately 500-600 mm^3. The solutions were injected intravenously via the tail vein at the administration volume of 100 μL. After each injection the tail vein was flushed with 100 μL of sterile saline solution. All animals were individually inspected before the treatment and 0.5, 1, 3, 8, 24, and 72 hours after treatment.
Clinical signs of the animals, such as posture, movement, breath, external body appearance, and any other relevant clinical sign were recorded. Mice of groups A, B, and C were anesthetized under 3-4% Sevoflurane gas anaesthesia (O2 95.0%) and imaged 0.5, 1, 3, 8, 24, and 72 hours post treatments. Mice were irradiated with filtered light of wavelength 675 nm and an image of emission light intensity was collected at 720 nm wavelength. Field of View, fstop, Binning and Exposition Time were determined during experimental setting. Regions of interest (ROIs) were selected by an operator over the acquired supine, dorsal, and side views. The signal intensity within the ROIs was determined automatically by the software. At the end of the experiment the mice were sacrificed and tumors were excised to measure ex vivo the fluorescent signal intensity.

[4] = tested on: HCT-116 cells (colon carcinoma); assay: Internalization in adherent cells, Trypan Blue quenching flow cytometry (Example 6); type: cell-based; conditions: 200 nM, 37 °C, FIG. 8
Procedure: Adherent cell lines in exponential growth phase were cultured in complete culture medium with 10% FBS and grown in flat-bottom culture plates. On the day of the experiment, cells were washed with culture medium supplemented with 3% BSA (Sigma-Aldrich) and then incubated with peptides coupled with A488 fluorochrome for various timepoints (from 5 to 160 min) at a single concentration or at various dilutions (serial dilutions) at a determined timepoint at 37° C. in the corresponding culture medium supplemented with 3% BSA. After the incubation, cells were washed in PBS 1× and detached using trypsin. Following trypsinization, cells were washed in PBS 1× supplemented with 3% BSA and then incubated for at least 15 min at 4° C. with DAPI (Thermo Fisher Scientific) in order to exclude dead cells. Right before acquisition on a flow cytometer, samples were divided in two. The first series of samples was acquired directly on a flow cytometer whereas the second series was supplemented with Trypan Blue in order to observe the internal fluorescence only. The percentage of internalization was further determined.
Fluorescence geometric mean of samples is standardised by subtracting fluorescence geometric mean of negative control (no compound) and the addition of 1.

[5] = tested on: chondroitin-4-sulfate (C4S); assay: ELISA binding to purified GAGs (Example 1); conditions: SAV-HRP/TMB absorbance 450 nm, binding at pH 6.4 for 1 hour at 37 °C, FIG. 1
Procedure: (§3) ELISA plates were coated with various purified GAGs (Sigma, AMBIO) in PBS pH 7.4 for 2 hours at 37° C. Plates were blocked overnight at 4° C. with 200 μl of PBS pH 7.4, Tween 0.05%+BSA 3%+PEG400 2%, then washed twice with fresh buffer TSCM pH 6.4 ((Tris 20 mM, NaCl 150 mM, BSA 1%, Tween 0.05%, 2 mM MgCl2, 2 mM CaCl2). Binding of the different peptides at serial dilution was conducted in TSCMP (TSCM+2% (w/v) PEG 600) pH 6.4 for 1 hour at 37° C. (100 ul per well). Plates were washed three times with fresh TSCM pH 6.4 (200 ul per well) and SAV-HRP was added at a dilution of 1/8000 (100 ul per well) for 20 min at room temperature. Following 3 washes with PBS pH 7.4, 3,3′,5,5′-tetramethylbenzidine (TMB) substrate was added for 10 min (100 ul per well), protected from light. The reaction was stopped by addition of 100 μl of 1 M H2SO4 and the absorbance at 450 nm was measured.
(§4) The GAGs tested in this example were: C4Str: chondroitin-4-sulfate(tracheal); C4Sns: chondroitin-4-sulfate (nasal); CSPG: chondroitin sulfate proteoglycan; C6S: chondroitin-6-sulfate; HA: hyaluronic acid; HEP: heparin; HS: heparan sulfate; DS: dermatan sulfate; PBS: PBS negative control.

[6] = tested on: chondroitin-6-sulfate (C6S); assay: ELISA binding to purified GAGs (Example 1); conditions: SAV-HRP/TMB absorbance 450 nm, binding at pH 6.4 for 1 hour at 37 °C, FIG. 1
Procedure: as §3, §4

CHO-K1 (WT) cells = assay: Flow cytometry binding of 680RD-labelled PEG variants to CHO cells (Example 4); type: cell-based; conditions: 680RD fluorescence, 30 min at 4 °C, BSA 3% + PEG600 2%; FIGS. 4 and 5
Procedure: as §1, with “Tumor cell” for “Cell”, “compounds of the present invention coupled with 680RD fluorochrome” for “(51-hS)2KC-Mal-Biotin, (51-hS)2KS-(51-hS)KC-Mal-Biotin, [(51-hS)2KS]2KK(Biotin) and VAR2-Biotin”, “and” for “(and eventually”, “2%” for “2%)”
After the incubation, cells were washed in PBS 1× supplemented with BSA 3%.
After the incubation, cells were washed in PBS 1× supplemented with 3% BSA and then incubated for at least 15 min at 4° C. with DAPI (Thermo Fisher Scientific) in order to exclude dead cells and samples are directly acquired on a flow cytometer. Data generated on the flow cytometer was analyzed using Flowjo™ 10.6.0.

Compound: CC[C@H](C)C(NC(=O)[C@H](CCCNC(=N)N)NC(=O)[C@H](NC(=O)[C@H](Cc1ccccc1)NC(=O)[C@H](Cc1ccc(O)cc1)NC(=O)[C@H](CCCNC(=N)N)NC(C)=O)C(C)C)C(=O)N[C@@H](CCCN)C(=O)N[C@@H](Cc1ccc(O)cc1)C(=O)N[C@@H](CCCNC(=N)N)C(=O)N[C@H](Cc1c[nH]cn1)C(=O)N[C@@H](CO)C(=O)N[C@@H](CCCCNC(=O)[C@H](CO)NC(=O)[C@@H](Cc1c[nH]cn1)NC(=O)[C@H](CCCNC(=N)N)NC(=O)[C@H](Cc1ccc(O)cc1)NC(=O)[C@H](CCCN)NC(=O)[C@@H](NC(=O)[C@H](CCCNC(=N)N)NC(=O)[C@H](NC(=O)[C@H](Cc1ccccc1)NC(=O)[C@H](Cc1ccc(O)cc1)NC(=O)[C@H](CCCNC(=N)N)NC(C)=O)C(C)C)[C@@H](C)CC)C(=O)N[C@@H](CO)C(=O)N[C@@H](CCCCNC(=O)[C@H](CO)NC(=O)[C@@H](Cc1c[nH]cn1)NC(=O)[C@H](CCCNC(=N)N)NC(=O)[C@H](Cc1ccc(O)cc1)NC(=O)[C@H](CCCN)NC(=O)[C@@H](NC(=O)[C@H](CCCNC(=N)N)NC(=O)[C@H](NC(=O)[C@H](Cc1ccccc1)NC(=O)[C@H](Cc1ccc(O)cc1)NC(=O)[C@H](CCCNC(=N)N)NC(C)=O)C(C)C)[C@@H](C)CC)C(=O)N[C@@H](CSC1CC(=O)N(CCCCCC(=O)NNC(=O)CCCCC2SC[C@H]3NC(=O)N[C@@H]23)C1=O)C(N)=O (some centres unmarked) [(51-hS)2KS-(51-hS)KC-Mal-Biotin] (I: Ac-RYF[dV]R[ξIle][Orn]YR[dH]SKSKC(X2)-NH2 / II: Ac-RYF[dV]RI[Orn]YR[dH]S / III: Ac-RYF[dV]RI[Orn]YR[dH]S; amide I:12-II:C, I:14-III:C)
reduction of fluorescence on CHO-pgsA-745 as compared with fluorescence on CHO-K1 cells [1]: 209.9 fold | binding on CHO-K1 cells, times better than (51-hS)2KC-Mal-Biotin [2]: 17.9 ×

Compound: CCc1c2c(nc3ccc(O)cc13)-c1cc3c(c(=O)n1C2)COC(=O)[C@]3(O)CC [SN-38]
activity relative to irinotecan [3]: 1000 times | potency relative to irinotecan in in vitro cytotoxicity assays [3]: 2- to 2000 fold

Compound: I: Ac-RYF[dV]R[ξIle][Orn]YR[dH]SKSKC(X1)-NH2 / II: Ac-RYF[dV]RI[Orn]YR[dH]SKS / III: Ac-RYF[dV]RI[Orn]YR[dH]S / IV: Ac-RYF[dV]RI[Orn]YR[dH]S (amide I:12-III:C, I:14-II:C, II:12-IV:C) [[(51-hS)2KS]2KC-Mal-680RD]
tumor signal of group B relative to other groups (HCT 116 tumor xenograft; group B 20 nmol/mouse i.v. vs 4 nmol/mouse, dependent on dose and on blocking compound): higher tumor signal | tumor to muscle ratio of fluorescence signal (HCT 116 tumor xenograft; groups A and B, all imaging times, FIGS. 12 and 13): almost two-fold | fluorescence signal (Average Radiant Efficiency) in the abdominal region, mainly liver and intestine (HCT 116 tumor xenograft; groups A, B, C (4, 20, 4 + 16 unlabeled nmol/mouse i.v.), imaging 0.5-72 h, independent of dose or blocking compound): strong signal | fluorescence signal (Average Radiant Efficiency) in the tumor (HCT 116 tumor xenograft; tumor of all groups, mainly groups A and B, i.v., imaging 0.5-72 h): presence of a signal

Compound: I: Ac-RYF[dV]R[ξIle][Orn]YR[dH]SKSKC(X3)-NH2 / II: Ac-RYF[dV]RI[Orn]YR[dH]SKS / III: Ac-RYF[dV]RI[Orn]YR[dH]S / IV: Ac-RYF[dV]RI[Orn]YR[dH]S (amide I:12-III:C, I:14-II:C, II:12-IV:C) [[(51-hS)2KS]2KC-Mal-Alexa488]
extent of internalisation in HCT-116 cells ([4]; time course up to 160 min): 85% | time after which 70% is internalised in HCT-116 cells [4]: 40 min

binding affinity to C4S [5]: binds specifically | binding affinity to C6S [6]: binds specifically
Compound: RYFvRIOYR (RYF[dV]RI[Orn]YR) [SEQ ID NO:37, Peptide moiety 51]

Compound: [(51-hS)2K(PEG1)]2KC-Mal-680RD: Four copies of SEQ ID NO:37, structure comprising SEQ ID NO:7 (n is 1), L-Cys conjugated to IRDye 680RD Maleimide (chain 1 RYF[dV]RI[Orn]YR; chain 2 [dH]SK[AEA]KC(IRDye 680RD maleimide); also: four peptide copies on branched Lys scaffold, further copies not in the chains)
binding on CHO-K1 cells compared with [(51-hS)2KS]2KC-Mal-680RD (CHO-K1 (WT) cells): increased binding

Compound: [(51-hS)2K(PEG5)]2KC-Mal-680RD: Four copies of SEQ ID NO:37, structure comprising SEQ ID NO:7 (n is 5), L-Cys conjugated to IRDye 680RD Maleimide (chain 1 RYF[dV]RI[Orn]YR; chain 2 [dH]SK[NH(CH2CH2O)5CH2CO]KC(IRDye 680RD maleimide); also: four peptide copies on branched Lys scaffold, further copies not in the chains)
binding on CHO-K1 cells compared with [(51-hS)2KS]2KC-Mal-680RD (CHO-K1 (WT) cells): increased binding
